According to patent US12421211B2, “Heterocyclic compounds” (Hoffmann-La Roche Inc., priority 2021, dated 2025):
Where a name gives a salt, the structure may show the parent alone.

Each compound was assayed on Acinetobacter baumannii ATCC17961 (assay: Antimicrobial susceptibility testing: 90% growth inhibitory concentration (IC90) determination). Conditions: Acinetobacter baumannii, ATCC17961, 16 h, 90% growth inhibitory concentration, Acinetobacter baumannii ATCC17961, Iso-Sensitest broth, OD 600 nm over 16 h; read-out: ATCC 17961 IC90.
Type: cell-based
Method in brief: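 Growth inhibition derived in log phase from OD600 kinetics (every 20 minutes, 16h, 35±2° C) of ATCC17961 in Iso-Sensitest medium, inoculum ~5×10^5 CFU/ml. Compounds tested as twofold series, 10 points (e.g. 50 to 0.097 μM final); IC90 and IC50 reported.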

`COCCn1ncc(-c2ccc(-c3cnc(C(=O)Nc4ccc(C(=O)N[C@H]5[C@@H]6CN(C(=O)N[C@@H]7CNC[C@H]7O)C[C@@H]65)c(Cl)c4)n3C)c(F)c2F)c1C` [Example E22, (1S,5R)-6-[[2-chloro-4-[[5-[2,3-difluoro-4-[1-(2-methoxyethyl)-5-methyl-pyrazol-4-yl]phenyl]-1-methyl-imidazole-2-carbonyl]amino]benzoyl]amino]-N-[(3R,4R)-4-hydroxypyrrolidin-3-yl]-3-azabicyclo[3.1.0] hexane-3-carboxamide] and `COCCn1ncc(-c2ccc(-c3cnc(C(=O)Nc4ccc(C(=O)N5CCN(C(=O)C[C@@H]6CC[N+](C)(C)C6)CC5)c(Cl)c4)n3C)c(F)c2F)c1C` [Example A5, N-[3-chloro-4-[4-[2-[(3S)-1,1-dimethylpyrrolidin-1-ium-3-yl]acetyl]piperazine-1-carbonyl]phenyl]-5-[2,3-difluoro-4-[1-(2-methoxyethyl)-5-methyl-pyrazol-4-yl]phenyl]-1-methyl-imidazole-2-carboxamide; formate] are within 1.5-fold of each other in IC90: 59 nM for the first, 55 nM for the second.

Going from `Cc1n[nH]cc1-c1ccc(-c2cnc(C(=O)Nc3ccc(C(=O)N4CCN(C(=O)C[N+]5(C)CCCC5)CC4)c(Cl)c3)n2C)c(F)c1F` [Example D15, N-[3-chloro-4-[4-[2-(1-methylpyrrolidin-1-ium-1-yl)acetyl]piperazine-1-carbonyl]phenyl]-5-[2,3-difluoro-4-(3-methyl-1H-pyrazol-4-yl)phenyl]-1-methyl-imidazole-2-carboxamide; formate] to `Cc1n[nH]cc1-c1ccc(-c2cnc(C(=O)Nc3ccc(C(=O)N4CCN(C(=O)C5CC[N+](C)(C)CC5)CC4)c(Cl)c3)n2C)c(F)c1F` [Example D16, N-[3-chloro-4-[4-(1,1-dimethylpiperidin-1-ium-4-carbonyl)piperazine-1-carbonyl]phenyl]-5-[2,3-difluoro-4-(3-methyl-1H-pyrazol-4-yl)phenyl]-1-methyl-imidazole-2-carboxamide; formate], the IC90 rises from 100 nM to 150 nM (1.5-fold).

First: Cc1c(-c2ccc(-c3cnc(C(=O)Nc4ccc(C(=O)N5CCN(C(=O)[C@@H]6C[C@@H](O)C[N+]6(C)C)CC5)c(Cl)c4)n3C)c(F)c2F)cnn1CCOC(F)F [Example F10, N-[3-chloro-4-[4-[(2S,4R)-4-hydroxy-1,1-dimethyl-pyrrolidin-1-ium-2-carbonyl]piperazine-1-carbonyl]phenyl]-5-[4-[1-[2-(difluoro-methoxy)ethyl]-5-methyl-pyrazol-4-yl]-2,3-difluoro-phenyl]-1-methyl-imidazole-2-carboxamide; formate]
Second: Cc1nn(CCOC(F)F)cc1-c1ccc(-c2cnc(C(=O)Nc3ccc(C(=O)N4CCN(C(=O)[C@@H]5C[C@@H](O)C[N+]5(C)C)CC4)c(Cl)c3)n2C)c(F)c1F [Example F9, N-[3-chloro-4-[4-[(2S,4R)-4-hydroxy-1,1-dimethyl-pyrrolidin-1-ium-2-carbonyl]piperazine-1-carbonyl]phenyl]-5-[4-[1-[2-(difluoro-methoxy)ethyl]-3-methyl-pyrazol-4-yl]-2,3-difluoro-phenyl]-1-methyl-imidazole-2-carboxamide; formate]
The IC90 of the first is 2.1-fold lower: 75 nM for the first, 160 nM for the second.

`Cc1nn(CC2CC2(F)F)c(C)c1-c1ccc(-c2cnc(C(=O)Nc3ccc(C(=O)N4CCN(C(=O)C5C[C@@H](O)C[N+]5(C)C)CC4)c(Cl)c3)n2C)c(F)c1F` (stereo partly drawn) [Example K3, N-[3-chloro-4-[4-[(4R)-4-hydroxy-1,1-dimethyl-pyrrolidin-1-ium-2-carbonyl]piperazine-1-carbonyl]phenyl]-5-[4-[1-2,2-difluorocyclopropyl)methyl]-3,5-dimethyl-pyrazol-4-yl]-2,3-difluoro-phenyl]-1-methyl-imidazole-2-carboxamide; formate] and `COCCn1nc(C)c(-c2ccc(-c3cnc(C(=O)Nc4ccc(C(=O)N5CCN(C(=O)[C@@H]6C[C@@H](O)C[N+]6(C)C)CC5)c(Cl)c4)n3C)c(F)c2F)c1C` (racemic) [Example D3, N-[3-chloro-4-[4-[(2S,4R)-4-hydroxy-1,1-dimethyl-pyrrolidin-1-ium-2-carbonyl]piperazine-1-carbonyl]phenyl]-5-[2,3-difluoro-4-[1-(2-methoxyethyl)-3,5-dimethyl-pyrazol-4-yl]phenyl]-1-methyl-imidazole-2-carboxamide; formate] are within 1.5-fold of each other in IC90: 300 nM for the first, 390 nM for the second.

`CCc1c(-c2ccc(-c3cnc(C(=O)Nc4ccc(C(=O)N5CCN(C(=O)[C@@H]6C[C@@H](O)C[N+]6(C)C)CC5)c(Cl)c4)n3C)c(F)c2F)cnn1CCOC` [Example F20, N-[3-chloro-4-[4-[(2S,4R)-4-hydroxy-1,1-dimethyl-pyrrolidin-1-ium-2-carbonyl]piperazine-1-carbonyl]phenyl]-5-[4-[5-ethyl-1-(2-methoxyethyl)pyrazol-4-yl]-2,3-difluoro-phenyl]-1-methyl-imidazole-2-carboxamide; formate] and `COCCn1cc(-c2ccc(-c3cnc(C(=O)Nc4ccc(C(=O)N5CCN(C(=O)[C@@H]6C[C@H](O)C[N+]6(C)C)CC5)c(Cl)c4)n3C)c(F)c2F)c(C)n1` [Example D10, N-[3-chloro-4-[4-[(2S,4S)-4-hydroxy-1,1-dimethyl-pyrrolidin-1-ium-2-carbonyl]piperazine-1-carbonyl]phenyl]-5-[2,3-difluoro-4-[1-(2-methoxyethyl)-3-methyl-pyrazol-4-yl]phenyl]-1-methyl-imidazole-2-carboxamide; formate] are within 1.5-fold of each other in IC90: 180 nM for the first, 210 nM for the second.

Going from `Cc1nn(CC(=O)NC2CCCOC2)cc1-c1ccc(-c2cnc(C(=O)Nc3ccc(C(=O)N4CCN(C(=O)C5CC[N+](C)(C)CC5)CC4)c(Cl)c3)n2C)c(F)c1F` (stereo not drawn) [Example G22, N-[3-chloro-4-[4-(1,1-dimethylpiperidin-1-ium-4-carbonyl)piperazine-1-carbonyl]phenyl]-5-[2,3-difluoro-4-[3-methyl-1-[2-oxo-2-(tetrahydropyran-3-ylamino)ethyl]pyrazol-4-yl]phenyl]-1-methyl-imidazole-2-carboxamide; formate] to `COc1ccc(NC(=O)Cn2cc(-c3ccc(-c4cnc(C(=O)Nc5ccc(C(=O)N6CCN(C(=O)C7CC[N+](C)(C)CC7)CC6)c(Cl)c5)n4C)c(F)c3F)c(C)n2)nc1` [Example G28, N-[3-chloro-4-[4-(1,1-dimethylpiperidin-1-ium-4-carbonyl)piperazine-1-carbonyl]phenyl]-5-[2,3-difluoro-4-[1-[2-[(5-methoxy-2-pyridyl)amino]-2-oxo-ethyl]-3-methyl-pyrazol-4-yl]phenyl]-1-methyl-imidazole-2-carboxamide; formate], the IC90 falls from 670 nM to 88 nM (7.6-fold).

`COCCn1ncc(-c2ccc(-c3cnc(C(=O)Nc4ccc(C(=O)N5CCN(C(=O)CCC[N+](CCN(C)C)(CCN(C)C)CC(=O)O)CC5)c(Cl)c4)n3C)c(F)c2F)c1C` [Example P4, carboxymethyl-[4-[4-[2-chloro-4-[[5-[2,3-difluoro-4-[1-(2-methoxyethyl)-5-methyl-pyrazol-4-yl]phenyl]-1-methyl-imidazole-2-carbonyl]amino]benzoyl]piperazin-1-yl]-4-oxo-butyl]-bis[2-(dimethylamino)ethyl]ammonium; 2,2,2-trifluoroacetate] and `Cc1c(-c2ccc(-c3cnc(C(=O)Nc4ccc(C(=O)N5CCN(C(=O)[C@@H]6C[C@@H](O)C[N+]6(C)C)CC5)c(Cl)c4)n3C)c(F)c2F)cnn1CCC(C)(C)O` [Example F4, N-[3-chloro-4-[4-[(2S,4R)-4-hydroxy-1,1-dimethyl-pyrrolidin-1-ium-2-carbonyl]piperazine-1-carbonyl]phenyl]-5-[2,3-difluoro-4-[1-(3-hydroxy-3-methyl-butyl)-5-methyl-pyrazol-4-yl]phenyl]-1-methyl-imidazole-2-carboxamide; formate] are within 1.5-fold of each other in IC90: 657 nM for the first, 830 nM for the second.

`Cc1nn(CCCC#N)c(C)c1-c1ccc(-c2cnc(C(=O)Nc3ccc(C(=O)N4CCN(C(=O)[C@@H]5C[C@@H](O)C[N+]5(C)C)CC4)c(Cl)c3)n2C)c(F)c1F` [Example F58, N-[3-chloro-4-[4-[(2S,4R)-4-hydroxy-1,1-dimethyl-pyrrolidin-1-ium-2-carbonyl]piperazine-1-carbonyl]phenyl]-5-[4-[1-(3-cyanopropyl)-3,5-dimethyl-pyrazol-4-yl]-2,3-difluoro-phenyl]-1-methyl-imidazole-2-carboxamide; formate] and `CC(CO)Cn1cc(-c2ccc(-c3cnc(C(=O)Nc4ccc(C(=O)N5CCN(C(=O)C6CC[N+](C)(C)CC6)CC5)c(Cl)c4)n3C)c(F)c2F)c(C(F)(F)F)n1` (stereo not drawn) [Example F7, N-[3-chloro-4-[4-(1,1-dimethylpiperidin-1-ium-4-carbonyl)piperazine-1-carbonyl]phenyl]-5-[2,3-difluoro-4-[1-(3-hydroxy-2-methyl-propyl)-3-(trifluoro-methyl)pyrazol-4-yl]phenyl]-1-methyl-imidazole-2-carboxamide; formate] are within 1.5-fold of each other in IC90: 480 nM for the first, 520 nM for the second.

First: Cc1nn(CCNS(=O)(=O)c2ccc(F)cc2)cc1-c1ccc(-c2cnc(C(=O)Nc3ccc(C(=O)N4CCN(C(=O)C5CC[N+](C)(C)CC5)CC4)c(Cl)c3)n2C)c(F)c1F [Example H3, N-[3-chloro-4-[4-(1,1-dimethylpiperidin-1-ium-4-carbonyl)piperazine-1-carbonyl]phenyl]-5-[2,3-difluoro-4-[1-[2-[(4-fluorophenyl)sulfonylamino]ethyl]-3-methyl-pyrazol-4-yl]phenyl]-1-methyl-imidazole-2-carboxamide; formate]
Second: COCCn1cc(-c2ccc(-c3cnc(C(=O)Nc4ccc(C(=O)N5CCN(C(=O)C6CC[N+](C)(C)CC6)CC5)c(Cl)c4)n3C)c(F)c2F)c(C(F)(F)F)n1 [Example F36, N-[3-chloro-4-[4-(1,1-dimethylpiperidin-1-ium-4-carbonyl)piperazine-1-carbonyl]phenyl]-5-[2,3-difluoro-4-[1-(2-methoxyethyl)-3-(trifluoromethyl)pyrazol-4-yl]phenyl]-1-methyl-imidazole-2-carboxamide; formate]
The IC90 of the first is 3.2-fold lower: 180 nM for the first, 580 nM for the second.
